In publication PMC6627067, “Probing Multi-Target Action of Phlorotannins as New Monoamine Oxidase Inhibitors and Dopaminergic Receptor Modulators with the Potential for Treatment of Neuronal Disorders” (Marine Drugs, 2019):
Several values for one entry are separate records, joined by “and”; a condition that tells them apart may be missing. Identical values can stand only once.

Key:
[1] = target: T1, hMAO-A (Homo sapiens, UniProt P21397); assay: hMAO-A inhibition, chemiluminescent MAO-Glo assay and kinetic analysis; format: biochemical; settings: for IC50: read-out: IC50 hMAO-A
T1 sequence (P21397 1-527): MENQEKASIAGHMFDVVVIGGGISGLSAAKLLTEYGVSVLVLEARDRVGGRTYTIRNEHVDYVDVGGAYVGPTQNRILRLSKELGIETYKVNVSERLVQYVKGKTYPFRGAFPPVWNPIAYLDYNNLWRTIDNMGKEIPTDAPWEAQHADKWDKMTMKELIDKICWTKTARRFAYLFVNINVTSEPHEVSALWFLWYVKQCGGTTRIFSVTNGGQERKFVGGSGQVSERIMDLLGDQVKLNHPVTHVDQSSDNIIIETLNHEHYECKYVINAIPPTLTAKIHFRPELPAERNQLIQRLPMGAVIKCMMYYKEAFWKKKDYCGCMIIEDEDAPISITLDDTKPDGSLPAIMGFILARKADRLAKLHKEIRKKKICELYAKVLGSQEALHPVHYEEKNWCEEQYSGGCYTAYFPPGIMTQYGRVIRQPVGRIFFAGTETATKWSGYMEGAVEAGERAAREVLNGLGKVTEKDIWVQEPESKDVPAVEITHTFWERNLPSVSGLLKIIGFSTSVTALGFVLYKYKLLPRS

[2] = target: T2, hMAO-B (Homo sapiens, UniProt P27338); assay: hMAO-B inhibition, chemiluminescent MAO-Glo assay and kinetic analysis; format: biochemical
T2 sequence (P27338 1-520): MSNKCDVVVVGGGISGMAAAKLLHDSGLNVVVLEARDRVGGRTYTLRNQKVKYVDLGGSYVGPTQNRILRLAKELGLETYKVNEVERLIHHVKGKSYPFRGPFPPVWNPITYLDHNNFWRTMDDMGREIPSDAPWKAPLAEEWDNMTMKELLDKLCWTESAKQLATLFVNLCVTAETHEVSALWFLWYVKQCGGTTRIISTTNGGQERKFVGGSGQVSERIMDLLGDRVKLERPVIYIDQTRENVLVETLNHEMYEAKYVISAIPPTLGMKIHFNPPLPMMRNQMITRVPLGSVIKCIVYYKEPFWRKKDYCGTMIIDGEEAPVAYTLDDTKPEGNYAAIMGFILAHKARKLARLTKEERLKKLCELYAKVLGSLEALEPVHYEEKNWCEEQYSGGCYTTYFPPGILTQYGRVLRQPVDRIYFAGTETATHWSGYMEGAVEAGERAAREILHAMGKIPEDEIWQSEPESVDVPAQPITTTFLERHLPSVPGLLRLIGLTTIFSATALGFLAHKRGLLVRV

[3] = target: T3, hM5 (CHRM5) (Homo sapiens, UniProt P08912); assay: GPCR cell-based functional assay, intracellular Ca2+ level, M5; settings: for % Stimulation of control agonist response, hM5: agonist effect at 100 µM; for inhibition at 100 µM: antagonist effect at 100 µM, read-out: % Inhibition of control agonist response, hM5
T3 sequence (P08912 1-532): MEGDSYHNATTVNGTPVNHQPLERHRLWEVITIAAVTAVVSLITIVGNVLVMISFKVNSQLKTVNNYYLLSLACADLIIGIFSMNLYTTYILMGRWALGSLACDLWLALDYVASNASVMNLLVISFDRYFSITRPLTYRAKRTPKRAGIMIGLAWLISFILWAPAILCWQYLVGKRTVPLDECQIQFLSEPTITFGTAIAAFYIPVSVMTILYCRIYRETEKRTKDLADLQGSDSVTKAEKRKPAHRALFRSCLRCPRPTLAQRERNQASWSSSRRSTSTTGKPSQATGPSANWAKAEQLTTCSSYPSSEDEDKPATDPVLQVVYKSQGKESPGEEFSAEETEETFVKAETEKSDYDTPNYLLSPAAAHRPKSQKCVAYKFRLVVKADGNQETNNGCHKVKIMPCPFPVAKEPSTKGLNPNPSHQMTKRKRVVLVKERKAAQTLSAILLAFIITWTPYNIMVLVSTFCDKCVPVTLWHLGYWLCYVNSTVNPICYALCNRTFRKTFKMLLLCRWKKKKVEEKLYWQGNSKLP

[4] = target: hNK1 (TACR1) (Homo sapiens, UniProt P25103); assay: GPCR cell-based functional assay, intracellular Ca2+ level, NK1; settings: for % Stimulation of control agonist response, hNK1: agonist effect at 100 µM; for inhibition at 100 µM: antagonist effect at 100 µM, read-out: % Inhibition of control agonist response, hNK1
Chain of hNK1 (TACR1) (P25103 whole entry): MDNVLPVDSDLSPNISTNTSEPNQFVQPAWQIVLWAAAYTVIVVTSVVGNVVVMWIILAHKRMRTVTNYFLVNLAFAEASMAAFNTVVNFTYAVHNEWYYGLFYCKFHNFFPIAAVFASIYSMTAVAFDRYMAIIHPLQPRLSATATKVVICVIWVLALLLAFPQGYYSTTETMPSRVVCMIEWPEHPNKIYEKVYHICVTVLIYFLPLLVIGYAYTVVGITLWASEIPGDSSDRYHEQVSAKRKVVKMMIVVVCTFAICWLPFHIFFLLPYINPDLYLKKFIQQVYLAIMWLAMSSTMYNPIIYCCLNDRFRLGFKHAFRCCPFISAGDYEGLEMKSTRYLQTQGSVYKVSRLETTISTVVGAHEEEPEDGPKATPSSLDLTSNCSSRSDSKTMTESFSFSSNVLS

[5] = target: T4, h5-HT1A (HTR1A) (Homo sapiens, UniProt P08908); assay: GPCR cell-based functional assay, intracellular Ca2+ level, 5-HT1A; settings: for % Stimulation of control agonist response, h5-HT1A: agonist effect at 100 µM; for inhibition at 100 µM: antagonist effect at 100 µM, read-out: % Inhibition of control agonist response, h5-HT1A
T4 sequence (P08908 1-422): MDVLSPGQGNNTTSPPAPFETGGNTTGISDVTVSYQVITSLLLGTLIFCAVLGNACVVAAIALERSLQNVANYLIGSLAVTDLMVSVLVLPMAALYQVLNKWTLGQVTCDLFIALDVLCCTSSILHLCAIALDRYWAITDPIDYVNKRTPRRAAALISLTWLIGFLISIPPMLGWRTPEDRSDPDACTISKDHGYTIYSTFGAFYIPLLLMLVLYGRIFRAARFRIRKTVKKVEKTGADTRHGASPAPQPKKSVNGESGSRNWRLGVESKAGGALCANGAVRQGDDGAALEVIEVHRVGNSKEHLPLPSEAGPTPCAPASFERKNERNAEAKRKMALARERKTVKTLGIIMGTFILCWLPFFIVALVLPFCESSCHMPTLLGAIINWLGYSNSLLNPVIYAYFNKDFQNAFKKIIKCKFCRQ

[6] = target: hV1A (AVPR1A) (Homo sapiens, UniProt P37288); assay: GPCR cell-based functional assay, intracellular Ca2+ level, V1A; settings: for % Stimulation of control agonist response, hV1A: agonist effect at 100 µM; for inhibition at 100 µM: antagonist effect at 100 µM, read-out: % Inhibition of control agonist response, hV1A
Chain of hV1A (AVPR1A) (P37288 whole entry): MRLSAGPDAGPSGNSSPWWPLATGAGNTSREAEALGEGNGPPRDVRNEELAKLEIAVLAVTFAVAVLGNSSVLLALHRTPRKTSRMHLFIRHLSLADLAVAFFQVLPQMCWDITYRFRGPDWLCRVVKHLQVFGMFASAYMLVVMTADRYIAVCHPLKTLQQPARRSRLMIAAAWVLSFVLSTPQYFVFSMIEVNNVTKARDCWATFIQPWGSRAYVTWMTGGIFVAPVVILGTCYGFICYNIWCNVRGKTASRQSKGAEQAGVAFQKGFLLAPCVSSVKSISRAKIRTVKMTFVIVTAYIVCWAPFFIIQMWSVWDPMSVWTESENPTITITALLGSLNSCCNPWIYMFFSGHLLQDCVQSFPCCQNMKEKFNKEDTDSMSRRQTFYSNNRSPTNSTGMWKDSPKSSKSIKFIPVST

[7] = target: T5, hD1 (DRD1) (Homo sapiens, UniProt P21728); settings: agonist effect at 100 µM
T5 sequence (P21728 whole entry): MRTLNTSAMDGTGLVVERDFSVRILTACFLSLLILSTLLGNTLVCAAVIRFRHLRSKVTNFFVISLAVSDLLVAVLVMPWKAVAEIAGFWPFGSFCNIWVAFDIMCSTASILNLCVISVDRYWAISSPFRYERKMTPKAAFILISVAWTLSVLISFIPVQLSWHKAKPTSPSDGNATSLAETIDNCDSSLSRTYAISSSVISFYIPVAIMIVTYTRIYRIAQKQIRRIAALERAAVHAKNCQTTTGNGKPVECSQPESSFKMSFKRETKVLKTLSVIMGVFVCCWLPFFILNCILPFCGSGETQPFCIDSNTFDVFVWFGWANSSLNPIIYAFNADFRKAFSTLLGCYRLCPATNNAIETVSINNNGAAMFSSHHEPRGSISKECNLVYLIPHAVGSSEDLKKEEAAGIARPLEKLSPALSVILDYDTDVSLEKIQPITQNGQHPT

[8] = target: T6, hD3 (DRD3) (Homo sapiens, UniProt P35462); settings: for % Stimulation of control agonist response, hD3: agonist effect at 100 µM
T6 sequence (P35462 whole entry): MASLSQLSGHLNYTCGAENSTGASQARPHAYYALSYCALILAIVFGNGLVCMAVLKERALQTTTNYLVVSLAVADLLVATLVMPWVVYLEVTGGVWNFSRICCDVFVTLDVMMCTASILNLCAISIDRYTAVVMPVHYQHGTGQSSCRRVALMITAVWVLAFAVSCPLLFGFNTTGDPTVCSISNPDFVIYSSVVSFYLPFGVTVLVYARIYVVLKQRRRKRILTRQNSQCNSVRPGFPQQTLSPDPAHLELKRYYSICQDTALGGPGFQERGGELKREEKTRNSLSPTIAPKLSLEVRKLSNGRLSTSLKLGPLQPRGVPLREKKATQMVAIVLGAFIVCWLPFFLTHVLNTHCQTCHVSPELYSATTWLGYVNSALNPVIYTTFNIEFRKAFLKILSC

[9] = target: T5, hD1 (DRD1); assay: cell-based; settings: read-out: % Inhibition of control agonist response, hD1
[10] = target: T6, hD3 (DRD3); assay: cell-based; settings: for inhibition at 100 µM: read-out: % Inhibition of control agonist response, hD3
[11] = target: T7, hD4 (DRD4) (Homo sapiens, UniProt P21917); settings: for % Stimulation of control agonist response, hD4: agonist effect at 100 µM; for inhibition at 100 µM: read-out: % Inhibition of control agonist response, hD4
T7 sequence (P21917 1-419): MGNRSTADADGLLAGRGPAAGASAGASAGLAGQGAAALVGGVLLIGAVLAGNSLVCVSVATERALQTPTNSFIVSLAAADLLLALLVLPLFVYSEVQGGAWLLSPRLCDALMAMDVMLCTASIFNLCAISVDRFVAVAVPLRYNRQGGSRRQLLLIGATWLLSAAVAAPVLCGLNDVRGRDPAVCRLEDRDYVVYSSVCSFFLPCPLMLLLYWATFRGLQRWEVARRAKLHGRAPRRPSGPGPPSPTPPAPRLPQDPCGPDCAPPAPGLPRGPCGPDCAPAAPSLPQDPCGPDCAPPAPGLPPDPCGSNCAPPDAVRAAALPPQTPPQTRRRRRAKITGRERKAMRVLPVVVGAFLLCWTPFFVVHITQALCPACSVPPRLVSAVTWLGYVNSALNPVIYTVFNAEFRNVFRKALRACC

[12] = Kiu from secondary plot of 1/Vmaxapp versus concentration
[13] = Lineweaver-Burk plots, NC = noncompetitive
[14] = recombinant hMAO-A, mean ± SD, n = 3
[15] = recombinant hMAO-B, mean ± SD, n = 3
[16] = concentration-dependent stimulation, mean ± SD

SMILES	IC50 [1, 14] [µM]	IC50 [2, 15] [µM]	% Stimulation of control agonist response, hM5 [3]	inhibition at 100 µM [3] [%]	% Stimulation of control agonist response, hNK1 [4]	inhibition at 100 µM [4] [%]	% Stimulation of control agonist response, h5-HT1A [5]	inhibition at 100 µM [5] [%]	% Stimulation of control agonist response, hV1A [6]	inhibition at 100 µM [6] [%]	% Stimulation of control agonist response, hD1 [7]	% Stimulation of control agonist response, hD3 [8]	inhibition at 100 µM [9] [%]	inhibition at 100 µM [10] [%]	% Stimulation of control agonist response, hD4 [11]	inhibition at 100 µM [11] [%]	other results
Oc1cc(O)cc(Oc2c(O)cc(O)c3c2Oc2c(O)cc4oc5c(Oc6cc(O)cc(O)c6)c(O)cc(O)c5c4c2O3)c1 [PFF-A, phlorofucofuroeckol-A]	9.22 ± 0.19	4.89 ± 0.32	29.20 ± 10.75 ^A %	56	67.65 ± 9.26 ^A %	88.2	1.65 ± 0.49 ^A %	62.5	38.45 ± 7.14 ^B %	52.9	0.25 ± 3.18 ^A %	98.57 ± 2.14% and 98.57 ± 2.14 ^A %	81.4	-15.2	98.50 ± 12.50% and 98.50 ± 12.50 ^A %	-26.1	Ki [1, 12]: 5.18 µM; Inhibition type hMAO-A [1, 13]: noncompetitive; SI (selective index) ([1]; ratio of hMAO-A IC50/hMAO-B IC50): 1.89; Ki [2, 12]: 2.69 µM; Inhibition type hMAO-B [2, 13]: noncompetitive; EC50 [10]: 19.2 ± 0.48 µM; EC50 [11]: 23.5 ± 1.55 µM
Oc1cc(O)cc(O)c1 [Phloroglucinol, phloroglucinol]	> 900	> 900	−6.05 ± 0.78 ^B %	-21.6	−0.85 ± 0.21 ^C %	-8.05	0.10 ± 0.28 ^B %	-4.15	−0.80 ± 0.57 ^C %	13.9	0.20 ± 3.82 ^A %	−0.15 ± 14.07 ^C %	4.95	-6.75	−9.95 ± 14.50 ^C %	-7.05	IC50 hMAO-A [1, 14]: no inhibitory activity; IC50 hMAO-B [2, 15]: no inhibitory activity; EC50, dopamine D3 agonist effect [8, 16]: No activity; EC50, dopamine D4 agonist effect [11, 16]: No activity
